In the experiment the target is T1, full-length human PKCι (Homo sapiens, UniProt P41743).
T1 construct: Recombinant, full-length human PKCι expressed in Sf21 insect cells is also commercially available; purchased; host or cells: Sf21 insect cells
T1 sequence (P41743 1-596): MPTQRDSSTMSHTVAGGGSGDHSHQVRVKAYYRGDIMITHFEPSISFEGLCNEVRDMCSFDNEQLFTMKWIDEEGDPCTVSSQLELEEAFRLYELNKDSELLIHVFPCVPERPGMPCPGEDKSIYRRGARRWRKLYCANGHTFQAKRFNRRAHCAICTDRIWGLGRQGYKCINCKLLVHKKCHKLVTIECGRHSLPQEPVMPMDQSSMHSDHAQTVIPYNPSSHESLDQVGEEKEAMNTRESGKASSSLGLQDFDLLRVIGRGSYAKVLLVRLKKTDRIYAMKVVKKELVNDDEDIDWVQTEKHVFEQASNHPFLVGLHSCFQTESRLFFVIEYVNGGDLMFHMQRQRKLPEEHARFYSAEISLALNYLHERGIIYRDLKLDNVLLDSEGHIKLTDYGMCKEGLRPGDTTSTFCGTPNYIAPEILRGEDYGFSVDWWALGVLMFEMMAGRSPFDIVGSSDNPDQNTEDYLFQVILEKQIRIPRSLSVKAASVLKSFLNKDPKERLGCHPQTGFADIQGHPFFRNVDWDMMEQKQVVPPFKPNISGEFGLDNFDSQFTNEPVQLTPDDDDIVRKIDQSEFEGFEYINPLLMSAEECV
Put plainly: PKCι IC50 IMAP assay, full-length PKCι at 150 μM ATP. Particulars: read-out: IC50 in IMAP assay against full length PKCi at 150 μM ATP. It counts as biochemical. In a few lines:
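Phosphorylation of a 5FAM-tagged PKCε pseudopeptide-derived substrate (100 nM) by full-length recombinant human PKCι was monitored by IMAP fluorescence polarisation. ATP was held at 150 μM, five times its apparent KM, with 60 min room-temperature incubation.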

pIC50: −log10 of the molar value.

`OC1CCC(Nc2cc(-c3nc(N4CCNCC4)c4c(C5CC5)cncc4n3)ccn2)CC1` (stereo not drawn) [Example 633, 4-[4-(5-Cyclopropyl-4-piperazin-1-yl-pyrido[3,4-d]pyrimidin-2-yl)-pyridin-2-ylamino]-cyclohexanol]: the pIC50 was over 7.00.
As to `O[C@H]1CCN(c2nc(-c3ccncc3)nc3cnccc23)C1` [Example 35, (3S)-1-[2-(pyridin-4-yl)pyrido[3,4-d]-pyrimidin-4-yl]-pyrrolidin-3-ol], the negative logarithm of the IC50 (pIC50) is 4.40 to 5.00.
Then `CC(=O)Nc1cc(-c2nc(N3CCN[C@@H](CS(C)(=O)=O)C3)c3c(C4CC4)cncc3n2)ccn1` [Example 770, N-{4-[5-Cyclopropyl-4-((R)-3-methanesulfonyl-methyl-piperazin-1-yl)-pyrido[3,4-d]pyrimidin-2-yl]-pyridin-2-yl}-acetamide], with 6.00 to 7.00; and `CC(C)NC(=O)C1CCN(c2nc(-c3ccnc(NC4CCCCC4)c3)nc3cncc(C4CC4)c23)CC1` [Example 674, 1-[2-(2-Cyclohexylamino-pyridin-4-yl)-5-cyclopropyl-pyrido[3,4-d]pyrimidin-4-yl]-piperidine-4-carboxylicacid isopropylamide], with 5.00 to 6.00; and `Cc1cccc(Nc2cc(-c3nc(N4CCNCC4)c4c(C5CC5)cncc4n3)ccn2)c1Cl` [Example 568, (2-Chloro-3-methyl-phenyl)-[4-(5-cyclopropyl-4-piperazin-1-yl-pyrido[3,4-d]pyrimidin-2-yl)-pyridin-2-yl]-amine], with over 7.00.
Then `FC(F)(F)[C@H]1CN(c2nc(-c3ccnc4[nH]ccc34)nc3cncc(C4CC4)c23)CCN1` [Example 1213, 5-Cyclopropyl-2-(1H-pyrrolo[2,3-b]pyridin-4-yl)-4-((R)-3-trifluoromethyl-piperazin-1-yl)-pyrido[3,4-d]pyrimidine], with over 7.00; and `CC1(C)CC(Nc2cc(-c3nc(N4CCNCC4)c4c(C5CC5)cncc4n3)ccn2)c2ccccc21` (stereo not drawn) [Example 2177, [4-(5-Cyclopropyl-4-piperazin-1-yl-pyrido[3,4-d]pyrimidin-2-yl)-pyridin-2-yl]-(3,3-dimethyl-indan-1-yl)-amine], with over 7.00.
As for `c1cc(-c2nc(N3CCNCC3)c3c(C4CC4)cncc3n2)c2cc(C3CCC3)[nH]c2n1` [Example 2146, 2-(2-Cyclobutyl-1H-pyrrolo[2,3-b]pyridin-4-yl)-5-cyclopropyl-4-piperazin-1-yl-pyrido[3,4-d]pyrimidine], the figure is over 7.00.
Regarding `Fc1ccc(Nc2cc(-c3nc(N4CCNCC4)c4c(C5CC5)cncc4n3)ccn2)nc1` [Example 271, [4-(5-Cyclopropyl-4-piperazin-1-yl-pyrido[3,4-d]pyrimidin-2-yl)-pyridin-2-yl]-(5-fluoro-pyridin-2-yl)-amine], the pIC50 is over 7.00.
As for `FC1(c2cc3c(-c4nc(N5CCNCC5)c5c(C6CC6)cncc5n4)ccnc3[nH]2)CC1` [Example 2127, 5-Cyclopropyl-2-[2-(1-fluoro-cyclopropyl)-1H-pyrrolo[2,3-b]pyridin-4-yl]-4-piperazin-1-yl-pyrido[3,4-d]pyrimidine], the figure is over 7.00.
Then `Clc1ccc(Nc2cc(-c3nc(N[C@@H]4CCNC4)c4ccncc4n3)ccn2)nc1` [Example 346, {2-[2-(5-Chloro-pyridin-2-ylamino)-pyridin-4-yl]-pyrido[3,4-d]pyrimidin-4-yl}-(R)-pyrrolidin-3-yl-amine], with over 7.00.
Then `FC(F)(F)[C@H]1CN(c2nc(-c3ccnc(Cl)c3)nc3cncc(C4CC4)c23)CCN1` [Example 660, 2-(2-Chloro-pyridin-4-yl)-5-cyclopropyl-4-((R)-3-trifluoromethyl-piperazin-1-yl)-pyrido[3,4-d]pyrimidine], with 4.40 to 5.00.
On to `CNc1cc(-c2nc(N3CCNCC3)c3c(C4CC4)cncc3n2)ccn1` [Example 630, [4-(5-Cyclopropyl-4-piperazin-1-yl-pyrido[3,4-d]pyrimidin-2-yl)-pyridin-2-yl]-methyl-amine], for which the negative logarithm of the IC50 (pIC50) is over 7.00.
As for `N#Cc1cccc(CC(=O)Nc2cc(-c3nc(N[C@@H]4CCNC4)c4ccncc4n3)ccn2)c1` [Example 348, 2-(3-Cyano-phenyl)-N-{4-[4-((R)-pyrrolidin-3-ylamino)-pyrido[3,4-d]pyrimidin-2-yl]-pyridin-2-yl}-acetamide], the figure is over 7.00; as for `COc1cncc2nc(-c3ccnc(Nc4ccccc4)c3)nc(N3CCNC(C(F)(F)F)C3)c12` (stereo not drawn) [Example 231, {4-[5-Methoxy-4-(3-trifluoromethyl-piperazin-1-yl)-pyrido[3,4-d]pyrimidin-2-yl]-pyridin-2-yl}-phenyl-amine], 4.40 to 5.00.
As for `CC(C)(C)OC(=O)N1CCN(c2nc(-c3ccncc3)nc3cnccc23)CC1` [Example 22, tert-butyl 4-[2-(pyridin-4-yl)-pyrido[3,4-d]-pyrimidin-4-yl]-piperazine-1-carboxylate], the figure is 4.40 to 5.00.
For `N#Cc1ccc(Nc2cc(-c3nc(N4CCNCC4)c4c(C5CC5)cncc4n3)ccn2)cc1F` [Example 631, 4-[4-(5-Cyclopropyl-4-piperazin-1-yl-pyrido[3,4-d]pyrimidin-2-yl)-pyridin-2-ylamino]-2-fluoro-benzonitrile], the negative logarithm of the IC50 (pIC50) is 6.00 to 7.00.
As for `Fc1cccc(F)c1Nc1cc(-c2nc(N3CCNCC3)c3c(C4CC4)cncc3n2)ccn1` [Example 264, [4-(5-Cyclopropyl-4-piperazin-1-yl-pyrido[3,4-d]pyrimidin-2-yl)-pyridin-2-yl]-(2,6-difluoro-phenyl)-amine], the figure is over 7.00; as for `CC(C)n1ccc(Nc2cc(-c3nc(N4CCNC(C)(C)C4)c4c(C5CC5)cncc4n3)ccn2)n1` [Example 2018, {4-[5-Cyclopropyl-4-(3,3-dimethyl-piperazin-1-yl)-pyrido[3,4-d]pyrimidin-2-yl]-pyridin-2-yl}-(1-isopropyl-1H-pyrazol-3-yl)-amine], over 7.00.
Then `C[C@H]1CN(c2nc(-c3ccnc4[nH]c(C(C)(C)C)cc34)nc3cncc(C4CC4)c23)CCN1` [Example 2001, 2-(2-tert-Butyl-1H-pyrrolo[2,3-b]pyridin-4-yl)-5-cyclopropyl-4-((S)-3-methyl-piperazin-1-yl)-pyrido[3,4-d]pyrimidine], with over 7.00.
As for `Cn1cc(-c2ccc(Nc3cc(-c4nc(N5CCNCC5)c5c(C6CC6)cncc5n4)ccn3)c(F)c2)cn1` [Example 2130, [4-(5-Cyclopropyl-4-piperazin-1-yl-pyrido[3,4-d]pyrimidin-2-yl)-pyridin-2-yl]-[2-fluoro-4-(1-methyl-1H-pyrazol-4-yl)-phenyl]-amine], the figure is over 7.00; as for `Fc1ncccc1Nc1cc(-c2nc(N3CCNCC3)c3c(C4CC4)cncc3n2)ccn1` [Example 495, [4-(5-cyclopropyl-4-piperazin-1-yl-pyrido[3,4-d]pyrimidin-2-yl)-pyridin-2-yl]-(2-fluoro-pyridin-3-yl)-amine], over 7.00; as for `CC(C)N1CCC(N(C)c2nc(-c3ccnc(Nc4c(F)cccc4F)c3)nc3cncc(C4CC4)c23)CC1` [Example 2115, {5-Cyclopropyl-2-[2-(2,6-difluoro-phenylamino)-pyridin-4-yl]-pyrido[3,4-d]pyrimidin-4-yl}-(1-isopropyl-piperidin-4-yl)-methyl-amine], over 7.00.
As for `N[C@H](CNc1nc(-c2ccncc2)nc2c(-c3cncnc3)nccc12)Cc1ccccc1` [Example 108, N-[(2S)-2-amino-3-phenylpropyl]-2-(pyridin-4-yl)-8-(pyrimidin-5-yl)pyrido[3,4-d]pyrimidin-4-amine], the pIC50 was 6.00 to 7.00.

The values are drawn from patent US9914730B2, “Azaquinazoline inhibitors of Atypical protein Kinase C” (Ignyta, Inc., priority 2012, dated 2018).
